From patent US20210188775A1, “CARBOXAMIDE AND SULFONAMIDE DERIVATIVES USEFUL AS TEAD MODULATORS” (Genentech, Inc., priority 2018, published 2021)
pIC50: −log10 of the molar value.

Assays:
Format in all cases: binding
[1] = biological target: T1, TEAD2 (Homo sapiens, UniProt Q15562); assay: TEAD lipid assay (Lipid FP, Bodipy-C16 probe displacement); conditions: fluorescence polarization, His-tagged TEAD, 60 minutes incubation
Method: (§1) A TEAD lipid assay was done according to the following method. His-tagged TEAD proteins were pre-incubated with a Bodipy-C16 FP probe (Life Technologies Cat #D3821) for 30 minutes at room temperature to pre-form TEAD-probe complex. […] Duplicate 10 point dose response curves were generated for each test compound. The potency of compounds as TEAD lipid pocket binders was determined by IC50 value generated using a non-linear 4 parameter curve fit.

[2] = biological target: T2, TEAD3 (Homo sapiens, UniProt Q99594); assay: as above; conditions: fluorescence polarization, His-tagged TEAD, 60 minutes incubation
T2 sequence (Q99594 whole entry, species assumed): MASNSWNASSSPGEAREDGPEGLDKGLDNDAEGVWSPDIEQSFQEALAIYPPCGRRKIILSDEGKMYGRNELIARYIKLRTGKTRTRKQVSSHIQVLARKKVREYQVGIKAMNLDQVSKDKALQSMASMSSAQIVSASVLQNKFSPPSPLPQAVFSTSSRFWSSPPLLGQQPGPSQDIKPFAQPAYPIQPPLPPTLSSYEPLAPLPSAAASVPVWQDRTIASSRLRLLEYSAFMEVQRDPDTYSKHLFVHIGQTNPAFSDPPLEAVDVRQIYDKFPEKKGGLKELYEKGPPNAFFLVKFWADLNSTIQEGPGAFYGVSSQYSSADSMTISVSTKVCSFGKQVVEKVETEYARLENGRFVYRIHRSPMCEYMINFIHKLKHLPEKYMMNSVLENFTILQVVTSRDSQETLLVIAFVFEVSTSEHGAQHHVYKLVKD
Method: as §1

[3] = biological target: TEAD1 (Homo sapiens, UniProt P28347); assay: Lipid HTRF TEAD1
Chain of TEAD1 (P28347 whole entry, species assumed): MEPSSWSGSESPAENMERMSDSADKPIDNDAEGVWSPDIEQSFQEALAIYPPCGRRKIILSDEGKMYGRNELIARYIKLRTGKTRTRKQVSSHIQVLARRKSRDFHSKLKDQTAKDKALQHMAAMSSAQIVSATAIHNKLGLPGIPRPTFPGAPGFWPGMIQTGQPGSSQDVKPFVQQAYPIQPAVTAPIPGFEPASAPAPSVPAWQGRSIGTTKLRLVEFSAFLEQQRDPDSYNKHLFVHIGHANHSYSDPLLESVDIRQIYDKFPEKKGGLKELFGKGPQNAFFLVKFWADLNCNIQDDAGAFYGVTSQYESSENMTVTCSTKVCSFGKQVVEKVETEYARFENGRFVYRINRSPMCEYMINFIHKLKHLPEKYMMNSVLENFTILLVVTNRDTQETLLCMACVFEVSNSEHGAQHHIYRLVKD

[4] = biological target: T1, TEAD2; assay: Lipid HTRF TEAD2
[5] = biological target: T2, TEAD3; assay: Lipid HTRF TEAD3
[6] = biological target: TEAD4 (Homo sapiens, UniProt Q15561); assay: Lipid HTRF TEAD4
Chain of TEAD4 (Q15561 whole entry, species assumed): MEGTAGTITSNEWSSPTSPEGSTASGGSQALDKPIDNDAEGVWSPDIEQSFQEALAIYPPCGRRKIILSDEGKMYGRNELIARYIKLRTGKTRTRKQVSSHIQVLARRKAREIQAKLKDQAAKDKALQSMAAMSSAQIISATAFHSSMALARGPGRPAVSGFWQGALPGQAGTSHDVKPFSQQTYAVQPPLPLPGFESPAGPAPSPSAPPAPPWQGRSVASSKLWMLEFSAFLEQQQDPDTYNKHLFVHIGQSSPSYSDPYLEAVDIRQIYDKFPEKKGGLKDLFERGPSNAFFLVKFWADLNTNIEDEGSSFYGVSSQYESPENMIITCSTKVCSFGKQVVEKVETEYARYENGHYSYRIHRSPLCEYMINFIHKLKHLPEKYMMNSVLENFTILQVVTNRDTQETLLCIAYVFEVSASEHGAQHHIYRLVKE

T1 sequence (Q15562 whole entry, species assumed): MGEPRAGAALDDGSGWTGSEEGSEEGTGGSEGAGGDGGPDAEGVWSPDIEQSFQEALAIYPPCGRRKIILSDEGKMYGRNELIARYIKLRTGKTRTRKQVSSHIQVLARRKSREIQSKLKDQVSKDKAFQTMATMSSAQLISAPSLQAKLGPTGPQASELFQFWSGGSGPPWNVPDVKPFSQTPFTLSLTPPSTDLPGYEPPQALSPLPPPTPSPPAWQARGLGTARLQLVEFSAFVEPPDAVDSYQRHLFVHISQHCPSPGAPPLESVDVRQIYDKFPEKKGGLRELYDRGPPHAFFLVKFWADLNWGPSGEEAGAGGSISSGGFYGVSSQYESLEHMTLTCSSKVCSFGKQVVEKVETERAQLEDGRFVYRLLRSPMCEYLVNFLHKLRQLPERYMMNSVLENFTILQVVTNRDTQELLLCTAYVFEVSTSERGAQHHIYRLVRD

SMILES	pIC50 [1]	pIC50 [2]	pIC50 [3]	pIC50 [4]	pIC50 [5]	pIC50 [6]
COc1nc(F)c(NS(C)(=O)=O)cc1/C=C/C1CCC(F)(F)CC1 [Compound 39, N-[5-[(E)-2-(4,4-difluorocyclohexyl)vinyl]-2-fluoro-6-methoxy-3-pyridyl]methanesulfonamide]	6.26	6.01				
COc1nc(F)c(NS(C)(=O)=O)cc1/C=C/CC1CCCC1 [Compound 40, N-[5-[(E)-3-cyclopentylprop-1-enyl]-2-fluoro-6-methoxy-3-pyridyl]methanesulfonamide]	6.19	6.19				
CC[C@H](CO)NC(=O)c1cc(/C=C/[C@H]2CC[C@H](C(F)(F)F)CC2)c(OC)cn1 [Compound 42, (E)-N-(1-hydroxybutan-2-yl)-5-methoxy-4-(2-(4-(trifluoromethyl)cyclohexyl)vinyl) picolinamide]	6.28	6.11				
COc1cnc(C(=O)NC[C@H](O)CO)cc1/C=C/C1CC2(CC2)C1 [Compound 43, (E)-N-(2,3-dihydroxypropyl)-5-methoxy-4-(2-(spiro[2.3]hexan-5-yl)vinyl)picolinamide]	6.01	5.77				
CC[C@H](CO)NC(=O)c1cc(/C=C/C2CC3(CC3)C2)c(OC)cn1 [Compound 44, (E)-N-(1-hydroxybutan-2-yl)-5-methoxy-4-(2-(spiro[2.3]hexan-5-yl)vinyl)picolinamide]	6.08	6.15				
COc1nnc(NS(C)(=O)=O)cc1/C=C/C1CCC(C(F)(F)F)CC1 (stereo not shown) [Compound 45, (E)-N-(6-methoxy-5-(2-(4-(trifluoromethyl)cyclohexyl)vinyl)pyridazin-3-yl)methanesulfonamide]	5.80	5.77				
CC[C@H](CO)NC(=O)c1cc(/C=C/[C@H]2CC[C@H](C(F)(F)F)CC2)c(OC)nn1 [Compound 46, (E)-N-(1-hydroxybutan-2-yl)-6-methoxy-5-(2-(4-(trifluoromethyl)cyclohexyl)vinyl) pyridazine-3-carboxamide]	5.80	5.80				
CC[C@H](CO)NC(=O)c1cc(/C=C/C2CC3(CC3)C2)c(OC)nn1 [Compound 47, (E)-N-(1-hydroxybutan-2-yl)-6-methoxy-5-(2-(spiro[2.3]hexan-5-yl)vinyl)pyridazine-3-carboxamide]	5.74	6.07				
COc1cnc(NS(C)(=O)=O)cc1/C=C/C1CCC(C(F)(F)F)CC1 (stereo not shown) [Compound 48, (E)-N-(5-methoxy-4-(2-(4-(trifluoromethyl)cyclohexyl)vinyl)pyridin-2-yl)methanesulfonamide]	5.96	5.80				
COc1ccc(NS(=O)(=O)C2CC2)cc1/C=C/c1ccc(Cl)cc1 [Compound 49, N-[3-[(E)-2-(4-chlorophenyl)vinyl]-4-methoxy-phenyl]cyclopropanesulfonamide]	6.12	5.72				
COc1ncc(NS(=O)(=O)CC(C)(C)C#N)cc1/C=C/C1CCC(F)(F)CC1 [Compound 50, 2-cyano-N-[5-[(E)-2-(4,4-difluorocyclohexyl)vinyl]-6-methoxy-3-pyridyl]-2-methyl-propane-1-sulfonamide]	5.89	5.96				
CS(=O)(=O)Nc1cnc(C2CC2)c(/C=C/C2CCC(F)(F)CC2)c1 [Compound 52, N-[6-cyclopropyl-5-[(E)-2-(4,4-difluorocyclohexyl)vinyl]-3-pyridyl]methanesulfonamide]	5.80	4.89				
CNC(=O)Cc1cccc(CNC(=O)c2cnc(OC)c(/C=C/C3CCC(F)(F)CC3)c2)c1 [Compound 54, (E)-5-(2-(4,4-difluorocyclohexyl)vinyl)-6-methoxy-N-(3-(2-(methylamino)-2-oxoethyl)benzyl)nicotinamide]			6.50	6.84	5.40	6.65
CNC(=O)Cc1cccc(CNC(=O)c2cc(/C=C/C3CCC(F)(F)CC3)c(OC)cn2)c1 [Compound 55, (E)-4-(2-(4,4-Difluorocyclohexyl)vinyl)-5-methoxy-N-(3-(2-(methylamino)-2-oxoethyl)benzyl)picolinamide]			6.70	7.05	6.64	7.14
CNC(=O)Cc1cccc(CNC(=O)c2cnc(OC)c(/C=C/[C@H]3CC[C@@H](C(F)(F)F)CC3)c2)c1 [Compound 56A, 6-Methoxy-N-(3-(2-(methylamino)-2-oxoethyl)benzyl)-5-((E)-2-(cis-4-(trifluoromethyl)cyclohexyl)vinyl)nicotinamide]			6.15	7.10	4.82	6.45
CNC(=O)Cc1cccc(CNC(=O)c2cnc(OC)c(/C=C/[C@H]3CC[C@H](C(F)(F)F)CC3)c2)c1 [Compound 56B, 6-methoxy-N-(3-(2-(methylamino)-2-oxoethyl)benzyl)-5-((E)-2-(trans-4-(trifluoromethyl)cyclohexyl)vinyl) nicotinamide]			6.71	7.51	5.68	7.41
CNC(=O)Cc1cccc(CNC(=O)c2cc(/C=C/[C@H]3CC[C@@H](C(F)(F)F)CC3)c(OC)cn2)c1 [Compound 57A, 5-Methoxy-N-(3-(2-(methylamino)-2-oxoethyl)benzyl)-4-((E)-2-(cis-4-(trifluoromethyl)cyclohexyl)vinyl) picolinamide]			6.41	7.34	6.06	6.88
CNC(=O)Cc1cccc(CNC(=O)c2cc(/C=C/[C@H]3CC[C@H](C(F)(F)F)CC3)c(OC)cn2)c1 [Compound 57B, 5-methoxy-N-(3-(2-(methylamino)-2-oxoethyl)benzyl)-4-((E)-2-(trans-4-(trifluoromethyl)cyclohexyl)vinyl) picolinamide]			6.89	7.77	6.53	7.72
C=CS(=O)(=O)Nc1cnc(OC)c(/C=C/C2CCC(F)(F)CC2)c1 [Compound 58, N-[5-[(E)-2-(4,4-difluorocyclohexyl)vinyl]-6-methoxy-3-pyridyl]ethenesulfonamide]			7.47	8.00	7.47	8.10
